Measured values: patent publication US20060160095A1, “Survivin” (EiRx Therapeutics Limited, priority 2002, published 2006)
e = 2'-O-(2-methoxyethyl) (MOE); d = 2'-deoxy (DNA)

What was measured:
Survivin mRNA = assay: Real-time PCR quantification of survivin mRNA in neutrophils; assay type: cell-based, human; conditions: for survivin mRNA expression in the absence of survival cytokines: 4-h transfection period, no cytokine
Method: (§1) Neutrophils are cultured at 1×10^6 per ml in complete culture medium. GM-CSF (50 ng/ml; kind gift of T. Hartung, University of Konstanz, Konstanz, Germany) or G-CSF (25 ng/ml; PeproTech, BioConcept, Allschwil, Switzerland) are added. The duration of GM-CSF or G-CSF stimulation is indicated in each experiment.
Neutrophils (1×10^7) are washed with PBS and the RNA is isolated according to the RNeasy protocol (Qiagen AG, Basel, Switzerland), which includes DNase digestion. RNA is reverse transcribed with the first strand cDNA synthesis kit (Amersham Pharmacia Biotech) by using random hexanucleotides according to the manufacturer's instructions. Real-time monitoring of PCR amplification of survivin cDNA is performed with a 1/100 dilution of neutrophil cDNA as previously described (Olie et al. (2000) Cancer Research 60, 2805-2809). Relative quantification of survivin expression is performed as described (Olie et al. (2000) Cancer Research 60, 2805-2809) utilizing rRNA as an internal standard.
(§2) The 20-mer first generation antisense oligonucleotide 4003 targeting the survivin mRNA has been described above. The second generation 2′-O-methoxy-ethoxy (2′-MOE) gapmer version of 4003 (as) and its 3-base mismatch sequence control (ms) are synthesized using an Applied Biosystems 394B automated DNA synthesizer as described (De Mesaeker et al. (1995) Acc. Chem. Res. 28, 366-374). Sequences are as follows: antisense survivin, cscscsasgsCsCsTsTsCsCsAsGsCsTscscststsg; mismatch survivin, cscstsasgsCsCsTsTsCsCsAsGsGsTscscstsasg. Small letters refer to 2′-O-(2-methoxy)-ethyl-modified nucleotides, capital letters to DNA, and “s” refers to phosphorothioate linkages. Cells isolated and cultured as described above are treated with survivin antisense oligonucleotides (as) or survivin mismatch control oligonucleotides (ms) at the indicated concentrations. In the experiments in which GM-CSF (50 ng/ml; kind gift of T. Hartung, University of Konstanz, Konstanz, Germany) or G-CSF (25 ng/ml; PeproTech, BioConcept, Allschwil, Switzerland) are added, the oligonucleotides are given 2 h before addition of cytokines.

Neutrophils = assay: Neutrophil apoptosis by oligonucleosomal DNA fragments after 2-MOE oligonucleotides; assay type: cell-based, human; conditions: for GM-CSF- and G-CSF-mediated survival of neutrophils: oligonucleotide plus GM-CSF or G-CSF
Method: Neutrophil apoptosis is assessed by oligonucleosomal DNA fragmentation (Dibbert et al.(1999) Proc. Natl. Acad. Sci. USA 96, 13330-13335; Hebestreit et al. (1998), J. Exp. Med. 187, 415-425) according to Nicoletti et al. ((1991) J. Immunol. Meth. 139, 271-279). Briefly, cells are resuspended in hypotonic fluorochrome solution containing 50 μg/ml propidium iodide (Sigma Buchs, Switzerland), 0.1% sodium citrate (Sigma) and 0.1% (vol/vol) Triton-X 100 (Sigma), incubated at 4° C. for 10 h, and analyzed by flow cytometry (FACScan, Becton Dickinson, Heidelberg, Germany).
as §2
Values are means ±S.E.M. of four independent experiments. *, p<0.05; **, p<0.01; ***, p<0.001.

survivin = assay: Immunoblotting of survivin protein in neutrophils; assay type: cell-based, human
Method: as §1
Neutrophils (5×10^6) are washed with PBS, lysed with RIPA-buffer (0.5% sodium deoxycholate, 1% Nonidet P-40, 0.1% SDS in PBS) supplemented with a protease inhibitor-cocktail (Sigma) with frequent vortexing on ice for 40 min, including two freeze/thaw cycles using a methanol/dry ice bath. After a 10-min centrifugation to remove insoluble particles, equal amounts of the cell lysates are loaded on NuPage-Gels (Invitrogen Corp., Groningen, Netherlands). Separated proteins are electrotransferred onto polyvinylidene difluoride (PVDF) membranes (Immobilion-P, Millipore, Bedford, Mass.). The filters are incubated overnight with a polyclonal anti-survivin antibody (1/1000; R&D Systems, Abingdon, UK) at 4° C. in TBS/0.1% Tween-20/3% non-fat dry milk. Purified full-length recombinant human survivin (2 μl) is provided by R&D Systems as positive control for anti-survivin immunoblotting. For loading controls, stripped filters are incubated with a monoclonal anti-β-actin antibody (1/10,000; Sigma). Filters are washed in TBS/0.1% Tween-20 for 30 min and incubated with the appropriate HRP-conjugated secondary antibody (Amersham Pharmacia Biotech, Dübendorf, Switzerland) in TBS/0.1% Tween-20/5% non-fat dry milk for 1 h. Filters are developed by an ECL-technique (ECL-Kit, Amersham Pharmacia Biotech) according to the manufacturer's instructions.
as §2

caspase-3 [1] = assay: Caspase-3 immunoblotting in neutrophils; assay type: cell-based, human
Method: Immunoblotting is carried out as described above using supernatants of cell lysates. Caspase-3 is detected using a polyclonal anti-caspase-3 antibody (1/1000; Becton Dickinson Pharmingen, Heidelberg, Germany))
(§3) Neutrophils (2.5×10^6) are cultured in the presence or absence of GM-CSF (50 ng/ml), G-CSF (25 ng/ml), 2-MOE modified antisense or mismatch survivin oligonucleotides at the indicated concentrations for 10 h, washed with cold PBS and subsequently lysed in 50 μl cell lysis buffer (50 mM HEPES, pH 7.4/0.1% Chaps/5 mM DTT/0.1 mM EDTA) using a Teflon glass homogenizer (VWR International, Ismaning, Germany) on ice for 10 min. After a 10-min centrifugation step at 10,000×g at 4° C., an aliquot of the supernatant is saved for caspase-3 immunoblotting and caspase 3-like activity is measured in 10 μl supernatants as enzymatic-conversion of the colorimetric substrate Ac-DEVD-pNA at 405 nm according to the manufacturer's instructions (QuantiZyme caspase 3 cellular activity assay kit, Biomol, Plymouth Meeting, Pa., USA).

caspase-3 [2] = assay: Enzymatic caspase assay (Ac-DEVD-pNA) in neutrophil lysates; assay type: cell-based, human
Method: as §3

[3] = test system: Primary human neutrophils; assay: MTT survival assay of neutrophils cultured with GM-CSF, with or without gliotoxin; assay type: cell-based; conditions: 0.1 μg/ml added with 5 U/ml GM-CSF
Method: Primary human neutrophils are isolated and purified from peripheral blood of normal healthy individuals. Neutrophils are resuspended in serum containing culture medium together with various amounts of GM-CSF at a density of 2×10^6/ml, with 100 μl plated into a 96 well plate and cultured for 18 h at 37° C. After this time 10 μl of MTT (5 mg/ml) is added to the cultures and incubated for a further 4 h at 37° C. before solubilisation of the purple coloured formazan with acidic isopropanol. Optical densities are read at 570 nm using a plate reader.
Primary human neutrophils are isolated and purified from peripheral blood of normal healthy individuals. Neutrophils are resuspended in serum containing culture medium containing 5 U/ml of GM-CSF at a concentration of 2×10^6/ml. […] After the indicated time, 10 μl of MTT (5 mg/ml) are added to the cultures and incubated for a further 4 h at 37° C. before solubilisation of the purple coloured formazan with acidic isopropanol. Optical densities are read at 570 nm using a plate reader.

## cscstsasgsCsCsTsTsCsCsAsGsGsTscscstsasg (CCTAGCCTTCCAGGTCCTAG; sugars from the 5' end e5 d10 e5, all phosphorothioate, methylation of C not given here) [mismatch control oligonucleotides, reference compound]
Survivin mRNA
  survivin mRNA expression in the absence of survival cytokines: only little effects
Neutrophils
  GM-CSF- and G-CSF-mediated survival of neutrophils: unspecific effect

## cscscsasgsCsCsTsTsCsCsAsGsCsTscscststsg (CCCAGCCTTCCAGCTCCTTG; sugars from the 5' end e5 d10 e5, all phosphorothioate, methylation of C not given here) [survivin-antisense, second generation 2′-O-methoxy-ethoxy (2′-MOE) gapmer version of 4003]
Survivin mRNA
  survivin mRNA expression in the absence of survival cytokines: only little effects
Survivin mRNA; G-CSF stimulation
  required concentration to significantly decrease survivin mRNA levels: 2.5 µM
Survivin mRNA; GM-CSF stimulation
  concentration sufficient to significantly decrease survivin mRNA levels: 1.0 µM
Survivin mRNA; oligonucleotides given 2 h before cytokines, dose-dependent
  increases in survivin mRNA expression upon GM-CSF and G-CSF stimulation: prevents increases in survivin mRNA expression
survivin; 15-h transfection period, no cytokine
  protein expression of survivin in normal neutrophils: almost not affected
survivin; G-CSF stimulation
  optimal concentration to block increase in survivin protein expression: 5 µM
survivin; GM-CSF stimulation
  optimal concentration to block increase in survivin protein expression: 2.5 µM
survivin; dose-dependent
  increases in survivin expression (protein) upon GM-CSF and G-CSF stimulation: prevents increases in survivin expression
Neutrophils; 10-h transfection period, no cytokine
  spontaneous apoptosis of neutrophils: increase spontaneous apoptosis
Neutrophils; G-CSF
  optimal concentration to block cytokine-mediated antiapoptosis: 5 µM
Neutrophils; GM-CSF
  optimal concentration to block cytokine-mediated antiapoptosis: 2.5 µM
Neutrophils
  GM-CSF- and G-CSF-mediated survival of neutrophils: blocked GM-CSF- and G-CSF-mediated survival in a dose-dependent manner
caspase-3 [1]; G-CSF
  optimal concentration to block inhibitory effects on caspase-3 processing: 5 µM
caspase-3 [1]; GM-CSF
  optimal concentration to block inhibitory effects on caspase-3 processing: 2.5 µM
caspase-3 [1]; dose-dependent, 10 h
  caspase-3 processing in the presence of GM-CSF or G-CSF: increase caspase-3 processing
caspase-3 [2]; G-CSF
  optimal concentration at which inhibitory effect on caspase-3 activity is completely blocked: 5 µM
caspase-3 [2]; GM-CSF
  optimal concentration at which inhibitory effect on caspase-3 activity is completely blocked: 2.5 µM
caspase-3 [2]; dose-dependent, 10 h
  caspase-3-like enzymatic activity in the presence of GM-CSF or G-CSF: increase caspase-3-like enzymatic activity

## CS[C@]1(CO)C(=O)N2[C@H]3C(=CC=C[C@@H]3O)C[C@@]2(SC)C(=O)N1C [methylgliotoxin, bis-Dethio-bis (Methylthio) Methyl Gliotoxin]
[3]
  block of the GM-CSF inhibition of neutrophil apoptosis (MTT): blocking effect is not seen

B1: G-CSF: inflammatory cytokine, neutrophil hematopoietin (PeproTech) (protein, UniProt P09919 31-207, looked up)
Granulocyte …: TPLGPASSLPQSFLLKCLEQVRKIQGDGAALQEKLVSECATYKLCHPEELVLLGHSLGIPWAPLSSCPSQALQLAGCLSQLHSGLFLYQGLLQALEGISPELGPTLDTLQLDVADFATTIWQQMEELGMAPALQPTQGAMPAFASAFQRRAGGVLVASHLQSFLEVSYRVLRHLAQP
Survivin mRNA; cytokine added in vitro, A549 standard = 100%
  survivin mRNA in normal control neutrophils after cytokine addition: increase in survivin mRNA
survivin; cultured for 12 h in the presence of cytokine
  Levels of survivin (immunoblot) in normal control neutrophils: increased
Neutrophils; cytokine alone
  DNA-fragmentation of neutrophils with cytokine: prevent DNA-fragmentation
caspase-3 [1]; neutrophils cultured with GM-CSF or G-CSF for 10 h
  caspase-3 proform and 17-kDa fragment levels with cytokine: maintain greater amounts of the caspase-3 proform
